Assay results as given in the supplement of paper PMC10307832.

Legend:
Assay in all cases: relative viability (nuclei count vs DMSO), 5 days (fraction); higher = more cells survive
NCI-H2342 = tested on: NCI-H2342
Summary of the method: (§1)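 Each reported value is a median over duplicate plates. It expresses relative viability: treated-well nuclei count divided by vehicle-well nuclei count. Lung cancer cell lines in 1536-well plates were dosed by pin tool a day after seeding, alone with one drug or with a fixed anchor-drug dose plus five library-drug doses (not always all listed) in √10 steps, and nuclei were counted after 5 days.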

NCI-H650 = tested on: NCI-H650
Summary of the method: as §1

HCC-366 = tested on: HCC-366
Summary of the method: as §1

NCI-H2347 = tested on: NCI-H2347
Summary of the method: as §1

SW 1573 = tested on: SW 1573
Summary of the method: as §1

NCI-H2228 = tested on: NCI-H2228
Summary of the method: as §1

A-427 = tested on: A-427
Summary of the method: as §1

HCC-827 = tested on: HCC-827
Summary of the method: as §1

NCI-H1993 = tested on: NCI-H1993
Summary of the method: as §1

LC-2-ad = tested on: LC-2-ad
Summary of the method: as §1

NCI-H23 = tested on: NCI-H23
Summary of the method: as §1

NCI-H1755 = tested on: NCI-H1755
Summary of the method: as §1

SK-LU-1 = tested on: SK-LU-1
Summary of the method: as §1

NCI-H1975 = tested on: NCI-H1975
Summary of the method: as §1

RERF-LC-KJ = tested on: RERF-LC-KJ
Summary of the method: as §1

SK-MES-1 = tested on: SK-MES-1
Summary of the method: as §1

LCLC-103H = tested on: LCLC-103H
Summary of the method: as §1

NCI-H1355 = tested on: NCI-H1355
Summary of the method: as §1

UMC-11 = tested on: UMC-11
Summary of the method: as §1

NCI-H2170 = tested on: NCI-H2170
Summary of the method: as §1

NCI-H1915 = tested on: NCI-H1915
Summary of the method: as §1

NCI-H1734 = tested on: NCI-H1734
Summary of the method: as §1

NCI-H1792 = tested on: NCI-H1792
Summary of the method: as §1

## CN1CCN(CCOc2cc(OC3CCOCC3)c3c(Nc4c(Cl)ccc5c4OCO5)ncnc3c2)CC1 [Saracatinib] + CC(=O)Nc1cccc(-n2c(=O)n(C3CC3)c(=O)c3c(Nc4ccc(I)cc4F)n(C)c(=O)c(C)c32)c1 [Trametinib] (partner 0.02 µM)
NCI-H2342; first compound 0.02 µM
  relative viability: 0.763
NCI-H2342; first compound 0.2 µM
  relative viability: 0.789
NCI-H2342; first compound 0.6325 µM
  relative viability: 0.944
NCI-H2342; first compound 2 µM
  relative viability: 0.817
NCI-H650; first compound 0.02 µM
  relative viability: 0.993
NCI-H650; first compound 0.2 µM
  relative viability: 0.877
NCI-H650; first compound 0.6325 µM
  relative viability: 1.03
NCI-H650; first compound 2 µM
  relative viability: 0.92
HCC-366; first compound 0.02 µM
  relative viability: 0.337
HCC-366; first compound 0.2 µM
  relative viability: 0.128
HCC-366; first compound 0.6325 µM
  relative viability: 0.216
HCC-366; first compound 2 µM
  relative viability: 0.202
NCI-H2347; first compound 0.02 µM
  relative viability: 0.265
NCI-H2347; first compound 0.2 µM
  relative viability: 0.265
NCI-H2347; first compound 0.6325 µM
  relative viability: 0.379
NCI-H2347; first compound 2 µM
  relative viability: 0.277
SW 1573; first compound 0.02 µM
  relative viability: 0.507
SW 1573; first compound 0.2 µM
  relative viability: 0.598
SW 1573; first compound 0.6325 µM
  relative viability: 0.457
SW 1573; first compound 2 µM
  relative viability: 0.364
NCI-H2228; first compound 0.02 µM
  relative viability: 0.616
NCI-H2228; first compound 0.2 µM
  relative viability: 0.425
NCI-H2228; first compound 0.6325 µM
  relative viability: 0.703
NCI-H2228; first compound 2 µM
  relative viability: 0.465
A-427; first compound 0.02 µM
  relative viability: 0.764
A-427; first compound 0.2 µM
  relative viability: 0.738
A-427; first compound 0.6325 µM
  relative viability: 0.911
A-427; first compound 2 µM
  relative viability: 0.672
HCC-827; first compound 0.02 µM
  relative viability: 0.542
HCC-827; first compound 0.2 µM
  relative viability: 0.306
HCC-827; first compound 0.6325 µM
  relative viability: 0.225
HCC-827; first compound 2 µM
  relative viability: 0.156
NCI-H1993; first compound 0.02 µM
  relative viability: 0.539
NCI-H1993; first compound 0.2 µM
  relative viability: 0.518
NCI-H1993; first compound 0.6325 µM
  relative viability: 0.528
NCI-H1993; first compound 2 µM
  relative viability: 0.5
LC-2-ad; first compound 0.02 µM
  relative viability: 0.9
LC-2-ad; first compound 0.2 µM
  relative viability: 0.858
LC-2-ad; first compound 0.6325 µM
  relative viability: 0.993
LC-2-ad; first compound 2 µM
  relative viability: 0.866
NCI-H23; first compound 0.02 µM
  relative viability: 0.344
NCI-H23; first compound 0.6325 µM
  relative viability: 0.351
NCI-H23; first compound 2 µM
  relative viability: 0.218
NCI-H1755; first compound 0.02 µM
  relative viability: 0.724
NCI-H1755; first compound 0.2 µM
  relative viability: 0.714
NCI-H1755; first compound 0.6325 µM
  relative viability: 0.75
NCI-H1755; first compound 2 µM
  relative viability: 0.694
SK-LU-1; first compound 0.02 µM
  relative viability: 0.51
SK-LU-1; first compound 0.2 µM
  relative viability: 0.364
SK-LU-1; first compound 0.6325 µM
  relative viability: 0.375
SK-LU-1; first compound 2 µM
  relative viability: 0.301
NCI-H1975; first compound 0.02 µM
  relative viability: 0.37
NCI-H1975; first compound 0.2 µM
  relative viability: 0.412
NCI-H1975; first compound 0.6325 µM
  relative viability: 0.391
NCI-H1975; first compound 2 µM
  relative viability: 0.267
RERF-LC-KJ; first compound 0.02 µM
  relative viability: 0.907
RERF-LC-KJ; first compound 0.2 µM
  relative viability: 0.869
RERF-LC-KJ; first compound 0.6325 µM
  relative viability: 0.916
RERF-LC-KJ; first compound 2 µM
  relative viability: 0.687
SK-MES-1; first compound 0.02 µM
  relative viability: 0.548
SK-MES-1; first compound 0.2 µM
  relative viability: 0.6
SK-MES-1; first compound 0.6325 µM
  relative viability: 0.347
SK-MES-1; first compound 2 µM
  relative viability: 0.256
LCLC-103H; first compound 0.02 µM
  relative viability: 0.716
LCLC-103H; first compound 0.2 µM
  relative viability: 0.58
LCLC-103H; first compound 0.6325 µM
  relative viability: 0.751
LCLC-103H; first compound 2 µM
  relative viability: 0.656
NCI-H1355; first compound 0.02 µM
  relative viability: 0.437
NCI-H1355; first compound 0.2 µM
  relative viability: 0.456
NCI-H1355; first compound 0.6325 µM
  relative viability: 0.439
NCI-H1355; first compound 2 µM
  relative viability: 0.441
UMC-11; first compound 0.02 µM
  relative viability: 0.763
UMC-11; first compound 0.2 µM
  relative viability: 0.586
UMC-11; first compound 0.6325 µM
  relative viability: 0.911
UMC-11; first compound 2 µM
  relative viability: 0.641
NCI-H2170; first compound 0.02 µM
  relative viability: 0.917
NCI-H2170; first compound 0.2 µM
  relative viability: 0.859
NCI-H2170; first compound 0.6325 µM
  relative viability: 0.916
NCI-H2170; first compound 2 µM
  relative viability: 0.862
NCI-H1915; first compound 0.02 µM
  relative viability: 0.305
NCI-H1915; first compound 0.2 µM
  relative viability: 0.292
NCI-H1915; first compound 0.6325 µM
  relative viability: 0.251
NCI-H1915; first compound 2 µM
  relative viability: 0.265
NCI-H1734; first compound 0.02 µM
  relative viability: 0.7
NCI-H1734; first compound 0.6325 µM
  relative viability: 0.645
NCI-H1734; first compound 2 µM
  relative viability: 0.611
NCI-H1792; first compound 0.02 µM
  relative viability: 0.492
NCI-H1792; first compound 0.2 µM
  relative viability: 0.355
NCI-H1792; first compound 0.6325 µM
  relative viability: 0.382
NCI-H1792; first compound 2 µM
  relative viability: 0.3
